In the assay the target is T1, Recombinant human mPGES-1 (Homo sapiens, UniProt O14684).
T1 sequence (O14684 1-152): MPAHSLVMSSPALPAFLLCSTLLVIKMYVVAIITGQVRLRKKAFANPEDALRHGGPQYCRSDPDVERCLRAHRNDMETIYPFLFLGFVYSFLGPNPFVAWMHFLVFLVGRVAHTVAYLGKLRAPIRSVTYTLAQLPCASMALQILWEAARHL
Briefly: In-vitro mPGES-1 enzyme inhibition assay (PGE2 formation from PGH2, HTRF detection). It is filed as biochemical. As to conditions: for inhibition at 1 µM: 1 μM test compound, read-out: Percentage inhibition at 1 μM; for inhibition at 1 µM / inhibition at 10 µM: recombinant human mPGES-1 microsomal fraction; for inhibition at 10 µM: 10 μM test compound, read-out: Percentage inhibition at 10 μM; for IC50: class symbols, selected examples. A digest of the protocol: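 IC50 values were derived by nonlinear regression of percent inhibition relative to enzyme reactions run without inhibitor. PGE2 formed from PGH2 with GSH was quantified by antibody-based HTRF after stannous chloride quench. Enzyme source was human mPGES-1 microsomes at 40-60 μg/mL protein; DMSO 0.5% (v/v).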
For orientation: TR-FRET usually uses a lanthanide donor and a delayed reading to cut background.

Each structure is given as a SMILES string.

In the case of `Cn1c(Nc2c(F)cccc2Cl)nc2cc(C(=O)Nc3cccc(C(F)(F)F)c3)c3c(c21)CC(C)(C)O3` [Example-139, 2-((2-Chloro-6-fluorophenyl)amino)-1,7,7-trimethyl-N-(3-(trifluoromethyl)phenyl)-7,8-dihydro-1H-benzofuro[4,5-d]imidazole-5-carboxamide], the inhibition (in general, the change of the read-out against control, counted positive when it falls) at 1 µM came out at 95.9%; the inhibition at 10 µM is 99.2%; the IC50 (in general, the point on the concentration scale where inhibition reaches its midpoint) was < 50 nM.
For `CC1(C)Cc2c(c(C(=O)Nc3ccc(C4CC4)cc3)cc3nc(Nc4c(F)cccc4Cl)[nH]c23)O1` [Example-140, 2-((2-Chloro-6-fluorophenyl)amino)-N-(4-cyclopropylphenyl)-7,7-dimethyl-7,8-dihydro-1H-benzofuro[4,5-d]imidazole-5-carboxamide] the same measures were 97.1%, 98.9% and < 50 nM.
For `CC1(C)Cc2c(c(C(=O)Nc3cc(F)c(F)cc3F)cc3nc(Nc4c(Cl)cccc4Cl)[nH]c23)O1` [Example-141, 2-((2,6-Dichlorophenyl)amino)-7,7-dimethyl-N-(2,4,5-trifluorophenyl)-7,8-dihydro-1H-benzofuro[4,5-d]imidazole-5-carboxamide] the same measures were 96.4%, 98.6% and < 50 nM.
For `Cc1ccc(NC(=O)c2cc3nc(Nc4c(Cl)cccc4Cl)[nH]c3c3c2OC(C)(C)C3)c(F)c1` [Example-142, 2-((2,6-Dichlorophenyl)amino)-N-(2-fluoro-4-methylphenyl)-7,7-dimethyl-7,8-dihydro-1H-benzofuro[4,5-d]imidazole-5-carboxamide] the same measures were 97.9%, 97.5% and < 50 nM.
In the case of `CC1(C)Cc2c(c(C(=O)Nc3cccc(C(F)(F)F)c3)cc3nc(NC(=O)c4c(F)cccc4Cl)[nH]c23)O1` [Example-143, 2-(2-Chloro-6-fluorobenzamido)-7,7-dimethyl-N-(3-(trifluoromethyl)phenyl)-7,8-dihydro-1H-benzofuro[4,5-d]imidazole-5-carboxamide], the inhibition at 1 µM turned out to be 19.6% and the inhibition at 10 µM came out at 39.2%.
For `CC1(C)Cc2c(c(C(=O)Nc3cccc(C(F)(F)F)c3)cc3nc(NCc4ccccc4Cl)[nH]c23)O1` [Example-144, 2-((2-Chlorobenzyl)amino)-7,7-dimethyl-N-(3-(trifluoromethyl)phenyl)-7,8-dihydro-1H-benzofuro[4,5-d]imidazole-5-carboxamide] the same measures were 37.3% and 46%.
For `CC1(C)Cc2c(c(C(=O)Nc3cc(C(F)(F)F)ccc3F)cc3nc(NCc4ccccc4Cl)[nH]c23)O1` [Example-145, 2-((2-Chlorobenzyl)amino)-N-(2-fluoro-5-(trifluoromethyl)phenyl)-7,7-dimethyl-7,8-dihydro-1H-benzofuro[4,5-d]imidazole-5-carboxamide], the inhibition at 1 µM was 59.5% and the inhibition at 10 µM turned out to be 60.4%.
Consider `Cn1c(Nc2c(F)cccc2Cl)nc2cc(C(=O)Nc3ccc(C(F)(F)F)nc3)c3c(c21)CC(C)(C)O3` [Example-153, 2-((2-Chloro-6-fluorophenyl)amino)-1,7,7-trimethyl-N-(6-(trifluoromethyl)pyridin-3-yl)-7,8-dihydro-1H-benzofuro[4,5-d]imidazole-5-carboxamide], for which the inhibition at 1 µM worked out at 100%, the inhibition at 10 µM amounted to 99.9% and the IC50 is < 50 nM.
For `Cc1ccc(NC(=O)c2cc3nc(Nc4c(F)cccc4Cl)n(C)c3c3c2OC(C)(C)C3)c(F)c1` [Example-154, 2-((2-Chloro-6-fluorophenyl)amino)-N-(2-fluoro-4-methylphenyl)-1,7,7-trimethyl-7,8-dihydro-1H-benzofuro[4,5-d]imidazole-5-carboxamide] the same measures were 99.8%, 100% and < 50 nM.
